What was measured:
Rattus norvegicus [1] = species: Rattus norvegicus; assay: ED50 value was reported as log1/C, which is the concentration required to reduce locomotor activity by 50% in rats; assay type: functional
[2] = Partition coefficient (logP); assay type: physicochemical; settings: octanol/water
Rattus norvegicus [3] = species: Rattus norvegicus; assay: Halving of lever pressing in non punished rats, ED50 value reported as log 1/C; assay type: functional
Rattus norvegicus [4] = species: Rattus norvegicus; assay: Fourfod increase in lever pressing in punished rats, ED50 value reported as log1/C; assay type: functional

Row | Compound | Log 1/C (Rattus norvegicus [1]) | logP [2] | Log 1/C (Rattus norvegicus [3]) | Log 1/C (Rattus norvegicus [4])
1 | O=C1CN=C(c2ccccc2)c2cc(Cl)ccc2N1CC(F)(F)F [HALAZEPAM] | 1.097 | 3.73 |  | 
2 | CN1C(=O)C(O)N=C(c2ccccc2F)c2cc(Cl)ccc21 (stereo not drawn) [FLUTEMAZEPAM] | 2.81 | 2 | 2.371 | 2.585
3 | CNC(=O)N1C(=O)CN=C(c2ccccc2)c2cc([N+](=O)[O-])ccc21 |  | 1.95 |  | 
4 | CCOC1N=C(c2ccccc2)c2cc(Cl)ccc2N(CCOC(C)=O)C1=O (stereo not drawn) |  | 2.87 |  | 
5 | O=C1CN=C(c2ccccc2)c2cc([N+](=O)[O-])ccc2N1 [NITRAZEPAM] | 2.326 | 2.12 |  | 
6 | O=C1C(O)N=C(c2ccccc2)c2cc(Cl)ccc2N1CCO (stereo not drawn) | 0.797 | 1.35 | 0.42 | 0.361
7 | O=C1Nc2ccc(Cl)cc2C(c2ccccc2Cl)=NC1O (stereo not drawn) [LORAZEPAM] | 3.145 |  | 2.897 | 2.444
8 | CCN(CC)CCN1C(=O)C(O)N=C(c2ccccc2F)c2cc(Cl)ccc21 (stereo not drawn) |  | 1.68 |  | 
9 | O=C1C(O)N=C(c2ccccc2)c2cc(Cl)ccc2N1CCCO (stereo not drawn) |  | 1.87 |  | 
10 | O=C1CN=C(c2ccccc2Cl)c2cc(Cl)ccc2N1 [DELORAZEPAM] | 2.79 | 2.73 | 2.509 | 2.678
11 | O=C(O)CCC(=O)OC1N=C(c2ccccc2)c2cc(Cl)ccc2NC1=O (stereo not drawn) | 1.381 | 1.41 |  | 
12 | O=C1C[N+]([O-])=C(c2ccccc2)c2ccccc2N1 |  | 1.46 |  | 
13 | CCOC1N=C(c2ccccc2)c2cc(Cl)ccc2N(CCO)C1=O (stereo not drawn) |  | 2.4 |  | 
14 | CN1C(=O)C(O)N=C(c2ccccc2)c2cc(Cl)ccc21 (stereo not drawn) [TEMAZEPAM] | 1.629 |  | 1.228 | 1.883
15 | CC(=O)OCCCN1C(=O)C(OC(C)=O)N=C(c2ccccc2)c2cc(Cl)ccc21 (stereo not drawn) |  | 3 |  | 
16 | O=C1C(O)N=C(c2ccccc2Cl)c2cc(Cl)ccc2N1CCO (stereo not drawn) | 2.005 | 1.94 | 1.711 | 1.959
17 | COc1cc(C(=O)OC2N=C(c3ccccc3)c3cc(Cl)ccc3NC2=O)cc(OC)c1OC (stereo not drawn) | 0.358 | 3.54 |  | 
18 | O=C1Nc2ccc(Cl)cc2C(c2ccccc2)=NC1O (stereo not drawn) [OXAZEPAM] | 1.191 |  | 0.961 | 1.192
19 | CCOC1N=C(c2ccccc2)c2cc(Cl)ccc2N(CCCl)C1=O (stereo not drawn) | 0.193 | 3.95 |  | 
20 | O=C1C(O)N=C(c2ccccc2)c2cc([N+](=O)[O-])ccc2N1CCO (stereo not drawn) | 0.34 | 0.72 |  | 
21 | CCCC(CCC)C(=O)OC1N=C(c2ccccc2)c2cc(Cl)ccc2NC1=O (stereo not drawn) | 0.503 | 5.25 |  | 

Row | Compound | Log 1/C (Rattus norvegicus [1]) | logP [2] | Log 1/C (Rattus norvegicus [3]) | Log 1/C (Rattus norvegicus [4])
22 | CN1C(=O)CN=C(C2C=CCCC2)c2cc(Cl)ccc21 (stereo not drawn) |  | 2.76 |  | 
23 | CN1C(=O)CN=C(c2ccccc2Cl)c2cc(Cl)ccc21 | 2.409 | 3.25 | 2.409 | 2.824
24 | CCN(CC)CCN1C(=O)C(O)N=C(c2ccccc2)c2cc(Cl)ccc21 (stereo not drawn) |  | 1.67 |  | 
25 | CNC1C[N+]([O-])=C(c2ccccc2)c2cc(Cl)ccc2N1 (stereo not drawn) | 1.628 | 2.5 | 1.277 | 1.578
26 | O=C(O)CCC(=O)OCCN1C(=O)C[N+]([O-])=C(c2ccccc2)c2cc(Cl)ccc21 | 0.762 | 0.19 |  | 
27 | CN1C(=O)CN=C(c2ccccc2F)c2cc(Cl)ccc21 [FLUDIAZEPAM] | 2.598 | 2.67 | 2.417 | 2.721
28 | O=C1CN=C(c2ccccc2)c2cc(Cl)ccc2N1CC1CC1 [PRAZEPAM] | 0.709 | 3.72 |  | 
29 | CC(=O)OCCN1C(=O)C(OC(C)=O)N=C(c2ccccc2)c2cc(Cl)ccc21 (stereo not drawn) |  | 2.48 |  | 
30 | O=C1CN=C(c2ccccc2Cl)c2cc([N+](=O)[O-])ccc2N1 [CLONAZEPAM] |  | 2.41 |  | 
31 | CCN(CC)CCN1C(=O)C(O)N=C(c2ccccc2Cl)c2cc(Cl)ccc21 (stereo not drawn) |  | 2.26 |  | 
32 | O=C1CN=C(c2ccccc2F)c2cc(Cl)ccc2N1 | 2.046 | 2.15 | 1.825 | 2.284
33 | O=C1CN=C(c2ccccc2)c2cc(Cl)ccc2N1 [NORDAZEPAM] | 1.247 |  | 0.832 | 1.83
34 | CN1CCN=C(c2ccccc2)c2cc(Cl)ccc21 [MEDAZEPAM] | 1.443 | 4.05 |  | 
35 | O=C1C(O)N=C(c2ccccc2F)c2cc(Cl)ccc2N1CCO (stereo not drawn) [DOXEFAZEPAM] | 2.239 | 1.36 | 1.697 | 1.648
36 | CN1C(=O)C(O)N=C(c2ccccc2Cl)c2cc(Cl)ccc21 (stereo not drawn) [LORMETAZEPAM] | 2.594 | 2.58 | 2.394 | 2.658
37 | CN1C(=O)CN=C(c2ccccc2)c2cc(Cl)ccc21 [DIAZEPAM] | 1.793 |  | 1.659 | 1.876
38 | CC(=O)OC1N=C(c2ccccc2)c2cc(Cl)ccc2N(CCO)C1=O (stereo not drawn) |  | 2.01 |  | 
39 | O=C1Nc2ccc(Cl)cc2C(c2ccccc2F)=NC1O (stereo not drawn) | 2.501 | 1.48 | 2.045 | 2.36
40 | CCN(CC)CCN1C(=O)CN=C(c2ccccc2F)c2cc(Cl)ccc21 [FLURAZEPAM] | 1.943 | 2.35 | 1.291 | 1.745
41 | O=C1C[N+]([O-])=C(c2ccccc2)c2cc(Cl)ccc2N1CCO | 0.346 | 0.44 |  | 
